Experimental data: US9040687B2, “Process for the preparaton of novel porphyrin derivatives and their use as PDT agents and fluorescence probes” (COUNCIL OF SCIENTIFIC AND IDUSTRIAL RESEARCH, priority 2010, dated 2015)

Columns and labels:
Assay in all cases: MTT assay, cytotoxicity by cellular proliferation
Format in all cases: cell-based
Mia PaCa = details: Homo sapiens, MIA PaCa-2, cytotoxicity in the light
[1] = test system: oral cancer cells (SCC 131); details: Homo sapiens, SCC131, cytotoxicity in the light
Procedure: (§1) 3, (4,5-Dimethylthiazol-2-yl)-2,5-diphenyltetrazolium bromide (MTT) assay is a standard colorimetric assay for measuring cellular proliferation (cell growth). It was used to determine cytotoxicity of the porphyrin derivatives of the general formulae 1. Human cervical oral cancer cells (SCCl31 cells) (5×10^3 cells well^−1) were added to wells of two 96 well microtiter plate. One for dark cytotoxicity and another for light cytotoxicity with 150 μL DMEM (Dulbecco's Modified Eagle Medium) with 10% serum and incubated for 24 h. Then added 3.125 to 25 μM of porphyrin derivatives of the general formulae 1 in serial dilution (stock 100 mM diluted using DPBS (Dulbecco's Phosphate Buffered Saline) for test, 0.025% DMSO (dimethyl sulphoxide) for control and incubated for 3 h and irradiated in one plate using sodium vapor lamp (70 w for 15 min) while the other plate was kept in dark. After photoirradiation, DPBS was aspirated and 150 μL DMEM with 10% serum was added to each well and incubated is for 48 h. After 48 h of incubation, removed the plates from the incubator and added 10 µL of MIT (5 mg/ml stock) to each well of the plate. […] Read the absorbance at 570 nm. Percentage growth inhibition was calculated as % Growth inhibition=(control-test)/control)×100 […]

[2] = test system: Breast cancer cells (MDA MB 231); details: Homo sapiens, cytotoxicity in the light
Procedure: [Worded in the source for another cell line; this cell line is reported under the same test.] as §1

MCF 7 = details: Homo sapiens, MCF7, cytotoxicity in the light
HaCaT = details: Homo sapiens, cytotoxicity in the light
SiHa = details: Homo sapiens, cytotoxicity in the light
SCC 172 = details: SCC172, cytotoxicity in the light
HCT 116 = details: Homo sapiens, cytotoxicity in the light
HeLa = details: Homo sapiens, cytotoxicity in the light

Oc1cccc(-c2c3nc(c(-c4cccc(O)c4)c4ccc([nH]4)c(-c4cccc(O)c4)c4nc(c(-c5cccc(O)c5)c5ccc2[nH]5)CC4)C=C3)c1 [FOSCAN, 5, 10, 15, 20-tetrakis (meta-hydroxyphenyl)-chlorin, reference compound]
IC50 (Mia PaCa): 11 µM | IC50 [1]: 16 µM | IC50 [2]: 13.5 µM | IC50 (MCF 7): 13 µM | IC50 (HaCaT): 8 µM | IC50 (SiHa): 22.5 µM | IC50 (SCC 172): 12.5 µM | IC50 (HCT 116): 9 µM | IC50 (HeLa): 22 µM
